This is an account of results in patent publication US9815863B2, “Hydrogen bond forming fluoro ketolides for treating diseases” (priority 2010, dated 2017).

By Kd is commonly meant the free concentration of one partner at which half of the binding sites on the other are occupied at equilibrium, for simple one-to-one binding.

For test [1], the system named is E. coli ribosomes (23S rRNA). The experiment in a line: RNA footprinting (ribosome chemical probing), wild-type E. coli ribosomes. Format: binding. Particulars: E. coli ribosomes, 100 μM antibiotic. How it is done: (§1) Ribosome chemical probing. rRNA probing was done following standard protocols (Merryman, C., and H. F. Noller. 1998. Footprinting and modification-interference analysis of binding sites on RNA, p. 237-253. In C. W. J. Smith (ed.), RNA:Protein Interactions, A Practical Approach. Oxford University Press, Oxford), with minor modifications. Briefly, 200 nM ribosomes were incubated with 100 μM antibiotic in 50 μL of buffer B (80 mM HEPES-KOH [pH 7.8], 20 mM MgCl2, 100 mM NH4Cl, 1.5 mM dithiothreitol) for 10 min at 37° C., followed by 10 min at 20° C. Modifying reagents (dimethyl sulfate [DMS], kethoxal, or 1-cyclohexyl-3-(2-morpholinoethyl)carbodiimide metho p-toluene sulfonate [CMCT]) were added and the modification reaction was carried out for 10 min at 37° C. After quenching the reaction and ethanol precipitation, rRNA was extracted and the distribution of modified nucleotides was assessed by primer extension.
(§2) Interactions of CEM-101 with wild-type E. coli and S. aureus ribosomes in solution. […] 1987. Chloramphenicol, erythromycin, carbomycin and vernamycin B protect overlapping sites in the peptidyl transferase region of 23S ribosomal RNA. Biochimie 69:879-884). Also included in this study was a C3-cladinose cousin of CEM-101, CEM-103, which lacks the C2-linked fluorine atom.

Test [2] has as its target ribosomes. Particulars: literature values for erythromycin binding; read-out: Kd, previously published; cited from earlier work.
The target of test [3] is S. aureus 70S ribosomes. The experiment in a line: Saturation (direct) binding of radiolabeled drug to S. aureus wild-type ribosomes, spin-column. On the procedure: (§3) Ribosomes were prepared from E. coli, strain MRE 600, S. aureus strain ATCC 29212, or S. aureus strain N315 by standard protocols (Spedding™, G. 1990. Isolation and analysis of ribosomes from prokaryotes, eukaryotes, and organelles, p. 1-29. In G. Spedding (ed.), Ribosomes and protein synthesis, a practical approach. Oxford University Press, Oxford, United Kingdom; Adams, P. D., P. V. Afonine, G. Bunkoczi, V. B. Chen, I. W. Davis, N. Echols, J. J. Headd, L. W. Hung, G. J. Kapral, R. W. Grosse-Kunstleve, A. J. McCoy, N. W. Moriarty, R. Oeffner, R. J. Read, D. C. Richardson, J. S. Richardson, T. C. Terwilliger, and P. H. Zwart. 2010. PHENIX: a comprehensive Python-based system for macromolecular structure solution. Acta Crystallogr. D. Biol. Crystallogr. 66:213-221).
(§4) Competition binding studies. […]
(§5) Direct antibiotic binding experiments were done by incubating ribosomes at a 100 nM concentration with varying concentrations of radiolabeled drug in a total volume of 160 μL in buffer A (20 mM Tris-HCl [pH 7.5], 10 mM MgCl2, 150 mM NH4Cl, 6 mM 2-mercaptoethanol) at 37° C. for 15 min, then at 20° C. for 10 min. […] Radioactivity was measured in a scintillation counter and used to calculate the amount of the radiolabeled drug bound to ribosomes.

The subject of test [4] is 2058-dimethylated ribosomes isolated from the S. aureus N315 strain. Description: RNA footprinting of A2058-dimethylated (Erm-modified) ribosomes from S. aureus N315. The format is binding. Particulars: S. aureus N315 ribosomes dimethylated at A2058, drugs at 100 μM. On the procedure:
as §1
Interaction of CEM-101 with S. aureus ribosomes dimethylated at A2058 by Erm-methyltransferase. Erm-methyltransferase modifies A2058 in 23S rRNA by consecutively adding two methyl groups to the exocyclic amino group of the adenine base. Such modification completely blocks binding of erythromycin and similar macrolides, whereas its effect on binding of ketolides is less clear (Douthwaite, S., L. H. Hansen, and P. Mauvais. 2000. Macrolide-ketolide inhibition of MLS-resistant ribosomes is improved by alternative drug interaction with domain R of 23S rRNA. Mol. Microbiol. 36:183-193; Liu, M., and S. Douthwaite. 2002. Activity of the ketolide telithromycin is refractory to Erm monomethylation of bacterial rRNA. Antimicrob. Agents Chemother. 46:1629-1633). Therefore, interaction of CEM-101 with the ribosomes isolated from a clinical S. aureus strain N315, which carries five chromosomal copies of constitutively expressed ermA gene present in the Tn554 transposon (Kuroda, M., T. Ohta, I. Uchiyama, T. Baba, H. Yuzawa, I. Kobayashi, L. Cui, A. Oguchi, K. Aoki, Y. Nagai, J. Lian, T. Ito, M. Kanamori, H. Matsumaru, A. Maruyama, H. Murakami, A. Hosoyama, Y. Mizutani-Ui, N. K. Takahashi, T. Sawano, R. Inoue, C. Kaito, K. Sekimizu, H. Hirakawa, S. Kuhara, S. Goto, J. Yabuzaki, M. Kanehisa, A. Yamashita, K. Oshima, K. Furuya, C. Yoshino, T. Shiba, M. Hattori, N. Ogasawara, H. Hayashi, and K. Hiramatsu. 2001. Whole genome sequencing of meticillin-resistant Staphylococcus aureacs. Lancet 357:1225-1240) was investigated.
Footprinting analysis was used to test interactions of ketolides (CEM-101 and telithromycin) and cladinose-containing macrolides (CEM-103 and erythromycin) with the 2058-dimethylated ribosomes isolated from the S. aureus N315 strain. Ribosomes were incubated with the drugs (present at 100 μM concentration) and probed by DMS modification. Because dimethylated A2058 blocks progression of reverse transcriptase along the RNA template, a strong reverse transcriptase stop is observed at A2058 on the primer extension gel (Vester, B., and S. Douthwaite. 1994. Domain V of 23S rRNA contains all the structural elements necessary for recognition by the ErmE methyltransferase. J. Bacteriol. 176:6999-7004; Zhong, P., Z. Cao, R. Hammond, Y. Chen, J. Beyer, V. D. Shortridge, L. Y. Phan, S. Pratt, J. Capobianco, K. A. Reich, R. K. Flamm, Y. S. Or, and L. Katz. 1999. Induction of ribosome methylation in MLS-resistant Streptococcus pneumoniae by macrolides and ketolides. Microb. Drug Resist. 5:183-188). Therefore, it is impossible to use footprinting to evaluate interactions of macrolides with this position in the S. aureus N315 ribosomes. […]

Test [5] has as its system E. coli 70S ribosomes. Description: Saturation (direct) binding of radiolabeled drug to E. coli ribosomes, spin-column. On the procedure:
as §3, §4, §5

The test system of test [6] is ribosomes isolated from the S. aureus N315 strain. Description: Binding of [14C]erythromycin to ribosomes from S. aureus N315. Particulars: ribosomes from S. aureus N315, dimethylated at A2058. How it is done: Competition binding studies. Binding of erythromycin to E. coli and S. aureus ribosomes and competition experiments were done by size-exclusion chromatography using Bio-Gel P30 spin columns as described in Xiong, L., Y. Korkhin, and A. S. Mankin. 2005. Binding site of the bridged macrolides in the Escherichia coli ribosome. Antimicrob. Agents Chemother. 49:281-288.
Direct antibiotic binding experiments were done by incubating ribosomes at a 100 nM concentration with varying concentrations of radiolabeled drug in a total volume of 160 μL in buffer A (20 mM Tris-HCl [pH 7.5], 10 mM MgCl2, 150 mM NH4Cl, 6 mM 2-mercaptoethanol) at 37° C. for 15 min, then at 20° C. for 10 min. The reactions were loaded onto the spin columns and centrifuged in a swinging-bucket microcentrifuge rotor for 1 min at 1,000 g at room temperature. The flow-through solution was collected; 130 μL was mixed with 5 mL of the scintillation cocktail. Radioactivity was measured in a scintillation counter and used to calculate the amount of the radiolabeled drug bound to ribosomes.
Interaction of CEM-101 with S. aureus ribosomes dimethylated at A2058 by Erm-methyltransferase. Erm-methyltransferase modifies A2058 in 23S rRNA by consecutively adding two methyl groups to the exocyclic amino group of the adenine base. […]

Test [7] relates to S. aureus ribosomes (23S rRNA). Description: RNA footprinting (ribosome chemical probing), wild-type S. aureus ribosomes. Format: binding. Particulars: S. aureus ribosomes, 100 μM antibiotic. How it is done:
as §1, §2

With `CC[C@H]1OC(=O)[C@H](C)[C@@H](O[C@H]2C[C@@](C)(OC)[C@@H](O)[C@H](C)O2)[C@H](C)[C@@H](O[C@@H]2O[C@H](C)C[C@H](N(C)C)[C@H]2O)[C@](C)(O)C[C@@H](C)C(=O)[C@H](C)[C@@H](O)[C@]1(C)O` [erythromycin], the “Protection of A752 from DMS modification” value in test [1] and in test [7] was “fails to protect” each time. For the same molecule, the Kd in test [2] is 10 to 100 nM; in test [3], 11 ± 1 nM; in test [5] it was 66 ± 11 nM. The “Protection of A2059 from DMS modification (binding to Erm-modified ribosome)” value in test [4] is “not”. The “Protection of G2505 from kethoxal modification” value in test [4] is reported as “did not protect”. The “Protection of U2609 from modification with CMCT” value in test [4] is “did not protect”. Also, the Binding to ribosomes result in test [6] is on record as “lack of binding”.
